These results are taken from patent US10703765B2 (priority 2014, dated 2020).

Counter-ions that a name gives are not always drawn.

Chain of human σ1 receptor (Q99720 whole entry): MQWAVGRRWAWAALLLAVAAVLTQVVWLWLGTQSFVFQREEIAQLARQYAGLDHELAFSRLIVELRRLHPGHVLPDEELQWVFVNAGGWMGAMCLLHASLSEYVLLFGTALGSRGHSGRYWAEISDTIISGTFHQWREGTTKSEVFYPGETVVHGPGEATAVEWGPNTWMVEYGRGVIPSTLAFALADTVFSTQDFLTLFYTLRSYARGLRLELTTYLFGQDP

One assay addresses human σ1 receptor (Homo sapiens, UniProt Q99720). Description: biochemical.
Details: not given
The class given is binding. The arrangement: μ and σ1 dual binding: key to the marks not given beside the values.
Compound `COCC1CN(c2ccccc2)CC2(CCN(CCc3ccccc3)CC2)O1` (stereo not shown) [Example 319, 2-(methoxymethyl)-9-phenethyl-4-phenyl-1-oxa-4,9-diazaspiro[5.5]undecane hydrochloride] came in with a Ki of less than 500 nM.
On the same count and under the same terms, as for `CC1OC2(CCN(CCc3ccccc3)CC2)CN(Cc2nccs2)C1=O` (stereo not shown) [Example 160, 2-methyl-9-phenethyl-4-(thiazol-2-ylmethyl)-1-oxa-4,9-diazaspiro[5.5]undecan-3-one hydrochloride], the figure is less than 100 nM; as for `CC1OC2(CCN(CCc3cncc(Cl)c3)CC2)CN(c2ccccc2)C1=O` (stereo not shown) [Example 115, 9-(2-(5-chloropyridin-3-yl)ethyl)-2-methyl-4-phenyl-1-oxa-4,9-diazaspiro[5.5]undecan-3-one hydrochloride], less than 500 nM.
With `CC1OC2(CCN(CCc3ccccc3)CC2)CN(c2ccc3cnn(C)c3c2)C1=O.Cl` (stereo not shown) [Example 201, 2-methyl-4-(1-methyl-1H-indazol-6-yl)-9-phenethyl-1-oxa-4,9-diazaspiro[5.5]undecan-3-one hydrochloride], the “μ and σ1 dual binding” value is “++”.
With `CC1OC2(CCN(CCOc3ccccc3)CC2)CN(c2ccccc2)C1=O.Cl` (stereo not shown) [Example 72, 2-methyl-9-(2-phenoxyethyl)-4-phenyl-1-oxa-4,9-diazaspiro[5.5]undecan-3-one hydrochloride], the “μ and σ1 dual binding” value was “++”.
Consider `CC1OC2(CCN(CCc3ccccc3)CC2)CN(c2ccncc2)C1=O.Cl` (stereo not shown) [Example 205, 2-methyl-9-phenethyl-4-(pyridin-4-yl)-1-oxa-4,9-diazaspiro[5.5]undecan-3-one hydrochloride], for which the “μ and σ1 dual binding” value was “++”.
In the case of `COCC1OC2(CCN(CCc3ccccc3F)CC2)CN(c2ccccc2F)C1=O` (stereo not shown) [Example 136, 9-(2-fluorophenethyl)-4-(2-fluorophenyl)-2-(methoxymethyl)-1-oxa-4,9-diazaspiro[5.5]undecan-3-one hydrochloride], the Ki is less than 500 nM.
Still for that read-out and setting: as for `CC1OC2(CCN(CCc3cccnc3N)CC2)CN(c2ccccc2)C1=O` (stereo not shown) [Example 234, 9-(2-(2-aminopyridin-3-yl)ethyl)-2-methyl-4-phenyl-1-oxa-4,9-diazaspiro[5.5]undecan-3-one hydrochloride], the figure is less than 500 nM.
Take `CC1OC2(CCN(CCc3ccccn3)CC2)CN(c2cnccc2C(F)(F)F)C1=O.Cl` (stereo not shown) [Example 101, 2-methyl-9-(2-(pyridin-2-yl)ethyl)-4-(4-(trifluoromethyl)pyridin-3-yl)-1-oxa-4,9-diazaspiro[5.5]undecan-3-one hydrochloride]: the “μ and σ1 dual binding” value is “++”.
With `CC(=O)Nc1ccc(CCN2CCC3(CC2)CN(c2ccccc2)C(=O)C(C)O3)cc1.Cl` (stereo not shown) [Example 241, N-(4-(2-(2-methyl-3-oxo-4-phenyl-1-oxa-4,9-diazaspiro[5.5]undecan-9-yl)ethyl)phenyl)acetamide hydrochloride], the “μ and σ1 dual binding” value is “++”.

Still in this assay, the particulars now being: combined class from Ki-σ1 (human σ1 receptor, A1) and Ki-μ (human μ-opioid receptor, A2) radioligand binding.
For `COc1cccc(N2CC3(CCN(CCc4ccccc4)CC3)OCC2=O)c1` [Example 8, 4-(3-methoxyphenyl)-9-phenethyl-1-oxa-4,9-diazaspiro[5.5]undecan-3-one], the “μ and σ1 dual binding” value is recorded as “++”.
For the compound `Oc1ccc(CCN2CCC3(CC2)CN(c2ccccc2)CCO3)cc1` [Example 292, 4-(2-(4-phenyl-1-oxa-4,9-diazaspiro[5.5]undecan-9-yl)ethyl)phenol], the “μ and σ1 dual binding” value is “++”.

The assay is the same for the next values; noted with them: read-out: μ and σ1 dual binding.
Turning to `CC1OC2(CCN(CCc3ccccc3F)CC2)CN(c2cccnc2C(F)(F)F)C1=O` (stereo not shown) [Example 130, 9-(2-fluorophenethyl)-2-methyl-4-(2-(trifluoromethyl)pyridin-3-yl)-1-oxa-4,9-diazaspiro[5.5]undecan-3-one dihydrochloride], the Ki was less than 500 nM.
As to `CC1OC2(CCN(CCc3ccc(C(F)(F)F)cn3)CC2)CN(c2ccccc2)C1=O` (stereo not shown) [Example 34, 2-methyl-4-phenyl-9-(2-(5-(trifluoromethyl)pyridin-2-yl)ethyl)-1-oxa-4,9-diazaspiro[5.5]undecan-3-one hydrochloride], the Ki is greater than 500 nM.
The same measure, in the same setting: as for `CC(C)C1OC2(CCN(CCc3ccccc3)CC2)CN(c2ccccc2)C1=O` (stereo not shown) [Example 17, 2-isopropyl-9-phenethyl-4-phenyl-1-oxa-4,9-diazaspiro[5.5]undecan-3-one hydrochloride], the figure is less than 100 nM.
`CC1OC2(CCN(CCc3cc(N)ccn3)CC2)CN(c2ccccc2)C1=O` (stereo not shown) [Example 30, 9-(2-(4-aminopyridin-2-yl)ethyl)-2-methyl-4-phenyl-1-oxa-4,9-diazaspiro[5.5]undecan-3-one hydrochloride]: the Ki is greater than 500 nM.
For the compound `O=C1C(COCc2ccccc2)OC2(CCN(CCc3ccccc3)CC2)CN1c1ccccc1` (stereo not shown) [Example 19, 2-((benzyloxy)methyl)-9-phenethyl-4-phenyl-1-oxa-4,9-diazaspiro[5.5]undecan-3-one hydrochloride], the Ki was less than 100 nM.
Consider `CC1OC2(CCN(CCc3csc(NC(=O)OC(C)(C)C)n3)CC2)CN(c2ccccc2F)C1=O` (stereo not shown) [Example 140, tert-butyl (4-(2-(4-(2-fluorophenyl)-2-methyl-3-oxo-1-oxa-4,9-diazaspiro[5.5]undecan-9-yl)ethyl)thiazol-2-yl)carbamate], for which the Ki is greater than 500 nM.
In the case of `CS(=O)(=O)Nc1cccc(CCN2CCC3(CC2)CN(c2ccccc2)C(=O)C2(CC2)O3)c1` [Example 260, N-[3-(2-{13-oxo-12-phenyl-4-oxa-8,12-diazadispiro[2.1.5.3]tridecan-8-yl}ethyl)phenyl]methanesulfonamide hydrochloride], the Ki was less than 500 nM.
On to `CC1OC2(CCN(CC(=O)N(C)c3ccccc3)CC2)CN(c2ccccc2)C1=O` (stereo not shown) [Example 315, N-methyl-2-(2-methyl-3-oxo-4-phenyl-1-oxa-4,9-diazaspiro[5.5]undecan-9-yl)-N-phenylacetamide hydrochloride], for which the Ki is greater than 500 nM.
On to `CC1OC2(CCN(CC(=O)Nc3ccccc3)CC2)CN(c2ccccc2)C1=O` (stereo not shown) [Example 71, 2-(2-methyl-3-oxo-4-phenyl-1-oxa-4,9-diazaspiro[5.5]undecan-9-yl)-N-phenylacetamide], for which the Ki is greater than 500 nM.
For `NC(=O)Nc1cccc(CCN2CCC3(CC2)CN(Cc2ccc(C(F)(F)F)cn2)C(=O)C2(CC2)O3)c1` [Example 263, {3-[2-(13-oxo-12-{[5-(trifluoromethyl)pyridin-2-yl]methyl}-4-oxa-8,12-diazadispiro[2.1.5.3]tridecan-8-yl)ethyl]phenyl}urea], the Ki is less than 500 nM.
As to `O=C1N(c2ccccc2)CC2(CCN(CCc3ccccc3)CC2)OC12CC2` [Example 225, 8-phenethyl-12-phenyl-4-oxa-8,12-diazadispiro[2.1.5.3]tridecan-13-one], the Ki was less than 100 nM.
As to `Oc1cccc(CCN2CCC3(CC2)CN(c2ccccc2)CCO3)c1` [Example 322, 3-(2-(4-phenyl-1-oxa-4,9-diazaspiro[5.5]undecan-9-yl)ethyl)phenol], the Ki was less than 500 nM.
Turning to `CC1OC2(CCN(CCc3ccccc3)CC2)CN(Cc2ccccc2)C1=O` (stereo not shown) [Example 152, 4-benzyl-2-methyl-9-phenethyl-1-oxa-4,9-diazaspiro[5.5]undecan-3-one hydrochloride], the Ki was less than 100 nM.
As for `CC1OC2(CCN(CCc3cccc(N)c3)CC2)CN(c2ccccc2)C1=O` (stereo not shown) [Example 226, 9-(3-aminophenethyl)-2-methyl-4-phenyl-1-oxa-4,9-diazaspiro[5.5]undecan-3-one], the Ki was less than 100 nM.
Consider `CC1OC2(CCN(CCc3ccccc3[N+](=O)[O-])CC2)CN(c2ccccc2)C1=O` (stereo not shown) [Example 68, 2-methyl-9-(2-nitrophenethyl)-4-phenyl-1-oxa-4,9-diazapspiro[5.5]undecan-3-one], for which the Ki was greater than 500 nM.
Consider `CC1OC2(CCN(CCc3cccc([N+](=O)[O-])c3)CC2)CN(c2ccccc2)C1=O` (stereo not shown) [Example 67, 2-methyl-9-(3-nitrophenethyl)-4-phenyl-1-oxa-4,9-diazaspiro[5.5]undecan-3-one], for which the Ki was greater than 500 nM.
In the case of `COc1ccccc1CCN1CCC2(CC1)CN(Cc1ccccc1)CCO2` [Example 87, 4-benzyl-9-(2-methoxyphenethyl)-1-oxa-4,9-diazaspiro[5.5]undecane dihydrochloride], the Ki is greater than 500 nM.
With `CC1OC2(CCN(CCN3CCOCC3)CC2)CN(c2ccccc2)C1=O` (stereo not shown) [Example 65, 2-methyl-9-(2-morpholinoethyl)-4-phenyl-1-oxa-4,9-diazaspiro[5.5]undecan-3-one], the Ki is greater than 500 nM.
`O=C1COC2(CCN(CCc3ccccc3)CC2)CN1c1ccc(F)cc1` [Example 190, 4-(4-fluorophenyl)-9-phenethyl-1-oxa-4,9-diazaspiro[5.5]undecan-3-one]: the Ki was less than 500 nM.
